According to US20240110004A1 (Northwestern University, priority 2022, published 2024):
Where no end group is shown, it is not given here.

Assays:
[1] = test system: C57BL/6J mice; experiment: Toxicity in WT C57BL/6J mice (CBC, serum chemistry, H&E pathology); assay type: in vivo, mouse; conditions: 3 mg/kg with respect to peptide, osmotic subcutaneous pump, 8 weeks, vs saline
Source text: FIG. 21: Optical micrographs for toxicity pathology analysis. H&E stained tissue; scale bar: 200 μm.
FIG. 22: Quantification of in vivo results from toxicity pathology analysis as depicted in FIG. 21. Left: pathology severity scoring of H&E stained tissue; Middle: red blood cell count; Right: white blood cell count.
FIG. 23A-23D: Quantification of in vivo results from toxicity pathology analysis as depicted in FIG. 21. FIG. 23A: represents hemoglobin count; FIG. 23B: total protein count; FIG. 23C: ALT (alanine transaminase) count; FIG. 23D: total bilirubin count.
Methods: To assess the toxicity of P1 at the administrable dose in healthy animals, as compared to HV3-TAT at its operating dose, and saline for the negative control, male C57BL/6J mice were assigned to 3 groups (n=3-4 per group) and administered via osmotic subcutaneous pump (Alzet) either HV3-TAT at 3 mg/kg, P1 at 3 mg/kg, all with respect to peptide concentration, or saline as a negative control for 8 weeks. Animals were checked weekly after drug administration for mortality. At sacrifice, blood was collected from each animal via cardiac puncture using a 25-gauge needle while under isoflurane, and then animals were sacrificed and major organs (brain, lung, heart, liver, spleen, spinal cord, and kidneys) collected, weighed, and stored in 10% buffered formalin followed by paraffin embedment.

[2] = molecular target: pepsin (Sus scrofa, UniProt P00791)
Protocol: Stability of PLPs Methods I: For enzyme-induced cleavage experiments, the molar concentration of enzymes was set to 0.1 μM. The concentration of side-chain peptides (having sequence identity of SEQ ID: 1) varied in the range of 50-200 μM. For each enzyme, temperature was set for optimal enzyme activity. In a typical experiment, P1 or HV3-TAT was dissolved in DPBS (pH 7.4) or hydrochloric acid solution (pH 2), to obtain a stock polymer/peptide solution with a peptide concentration of 200 μM. Next, 5 μL of enzyme stock solution (10 μM) was added into 500 μL of the polymer/peptide solution which was subsequently stirred in a preheated oil bath at 37° C. In this case, the molar ratio of peptide substrate to enzymes was 2000:1. During the cleavage, aliquots were taken for HPLC analysis at predetermined time points. Each degradation experiment was repeated three times. Enzyme pretreated P1 was also run on SDS-PAGE and visualized with Coomassie Blue staining.

[3] = test system: HdhQ111 cells; experiment: Mitochondrial fragmentation assay; assay type: cell-based, mouse; conditions: compared to vehicle treatment group, at least 100 cells per group
Protocol: FIG. 8: Mitochondrial fragmentation assay. The percentage of HdhQ111 cells with fragmented mitochondria relative to the total number of cells was quantitated. At least 100 cells per group were counted.
FIG. 9: Mitochondrial fragmentation assay. Mitochondrial morphology was determined by staining cells with anti-Tom20 antibody. Nuclei: Hoechst 33342 stain. […] Scale Bars: 60 μm; 12 μm for inset.
Mitochondrial Fragmentation Methods: As preventing the fragmentation of the mitochondria is important for maintaining the health of striatal cells in the HD in vitro model, the PLP's abilities were tested in this regard.

[4] = molecular target: T1, interaction between VCP and mtHtt (Homo sapiens, UniProt P55072); experiment: VCP binding assay: association of VCP to mtHtt by immunoprecipitation and western blot in HEK293 cells; assay type: cell-based; conditions: HEK293 cells co-transfected with GFP-VCP and myc-Q73 FL, 3 μM, three doses
T1 construct: GFP; expressed in transfected cells; host or cells: HEK293
Protocol: Therefore, target engagement protein binding assays were conducted. HEK293 cells were cultured and plated one day before treatment. Cells were pre-treated with HV3-TAT or PLPs at 3 μM for 2 h. Cells were then co-transfected with GFP-VCP and myc-Q73 FL plasmids. Cells were treated with a second dose of peptide or PLPs 6 hours after transfection, and a final third dose of peptide or PLPs treatment was administered 24 hours after transfection. Cell total lysate was harvested 48 hours after transfection, and to confirm binding of PLPs to VCP in cells, association of VCP to mtHtt was quantified by immunoprecipitation (IP) followed by western blot upon treatment of HV3-TAT peptide and PLPs.

[5] = test system: R6/2 mice; experiment: mtHtt impact: mitochondrial VCP level and mtHtt aggregation in striatum; assay type: in vivo, mouse; conditions: for VCP level on mitochondria of striatum: ATPB loading control; for mtHtt aggregation in striatum: compared to saline treated
Source text: FIG. 34A-34B: Quantification of mitochondrial studies. FIG. 34A depicts quantification of immunoblot results for VCP levels on mitochondrial fractions from striatal extracts of WT and R6/2 mice after treatment (immunoblot not shown). ATPB refers to ATP-ase β subunit. p-value for: WT veh as compared to R62 veh: <0.0001; WT+P1 as compared to R62 veh: <0.0001; R62 veh as compared to R62+HV3-TAT: 0.0001; R62 veh as compared to R62+P1: 0.0184; R62+P1 as compared to R62+HV3-TAT: 0.2663. FIG. 34B depicts quantification of mtHtt aggregation after EM48 staining (stains not shown). p-value for: R62 veh as compared to R62+HV3-TAT: 0.0491; R62 veh as compared to R62+P1: 0.0189; R62+P1 as compared to R62+HV3-TAT: 0.8765.
In vivo Efficacy Methods—mtHtt Impact: As the pathophysiological hallmark of HD, the formation of mtHtt aggregates can be observed in striatum of HD mouse models, like R6/2 mice. […] HV3 peptide blocks mtHtt-VCP binding, and inhibits VCP mitochondrial accumulation, which reduce behavioral and neuropathological phenotypes of HD. Mitochondrial level of VCP and mtHtt aggregation were examined to test whether PLP recapitulates the mechanism of HV3 peptide. Mitochondrial fractions of striatum were isolated from mice in each treatment group. Protein levels of VCP on mitochondria were analyzed by western blotting, using ATPB as a loading control for mitochondria. mtHtt aggregation was visualized by immunohistochemical staining by anti-mtHtt antibody.

[6] = test system: HdhQ111 cells; experiment: Cell viability in HdhQ111 cells after enzyme or serum pretreatment of the compounds; assay type: cell-based, mouse; conditions: relative to compound without pretreatment, 3 μM with respect to peptide
Protocol: FIG. 10A-10B: Cell viability in HdhQ111 mouse striatal cells after enzyme pretreatment.
Each degradation experiment was repeated three times.
To verify that the PLPs retain bioactivity after being exposed to enzymes or serum treatments, the viability of HD mouse mutant striatal HdhQ111 cells was assessed following treatment with HV3-TAT and P1. […] Cells were maintained at 33° C. and 5% CO2 with a relative humidity of 95%. HdQ111 cells were plated in 96-well plates at a density of 5000 per well and then left to attach for 24 h. Cells were treated with HV3-TAT or PLPs at 3 μM with respect to peptide once a day, for 3 days. The medium was replaced every day. After 72 h, cells were washed 3 times with PBS buffer. At this point, 20 μL of CTB reagent in 80 uL of medium was added, and the cells incubated for 3 hours at 37° C. Fluorescence was measured at 590 nm with excitation at 560 nm using a Perkin Elmer EnSpire plate reader. The average background fluorescence of CTB in media without cells was subtracted from the average fluorescence readings of the experimental wells. Viability was calculated as the average background-subtracted signal in a well compared to that of a negative control well (treatment with vehicle or media). Three replicates were performed for each independent sample. 10% DMSO was used as a positive control and untreated cells in complete medium as a negative control. […]

T1 sequence (P55072 whole entry): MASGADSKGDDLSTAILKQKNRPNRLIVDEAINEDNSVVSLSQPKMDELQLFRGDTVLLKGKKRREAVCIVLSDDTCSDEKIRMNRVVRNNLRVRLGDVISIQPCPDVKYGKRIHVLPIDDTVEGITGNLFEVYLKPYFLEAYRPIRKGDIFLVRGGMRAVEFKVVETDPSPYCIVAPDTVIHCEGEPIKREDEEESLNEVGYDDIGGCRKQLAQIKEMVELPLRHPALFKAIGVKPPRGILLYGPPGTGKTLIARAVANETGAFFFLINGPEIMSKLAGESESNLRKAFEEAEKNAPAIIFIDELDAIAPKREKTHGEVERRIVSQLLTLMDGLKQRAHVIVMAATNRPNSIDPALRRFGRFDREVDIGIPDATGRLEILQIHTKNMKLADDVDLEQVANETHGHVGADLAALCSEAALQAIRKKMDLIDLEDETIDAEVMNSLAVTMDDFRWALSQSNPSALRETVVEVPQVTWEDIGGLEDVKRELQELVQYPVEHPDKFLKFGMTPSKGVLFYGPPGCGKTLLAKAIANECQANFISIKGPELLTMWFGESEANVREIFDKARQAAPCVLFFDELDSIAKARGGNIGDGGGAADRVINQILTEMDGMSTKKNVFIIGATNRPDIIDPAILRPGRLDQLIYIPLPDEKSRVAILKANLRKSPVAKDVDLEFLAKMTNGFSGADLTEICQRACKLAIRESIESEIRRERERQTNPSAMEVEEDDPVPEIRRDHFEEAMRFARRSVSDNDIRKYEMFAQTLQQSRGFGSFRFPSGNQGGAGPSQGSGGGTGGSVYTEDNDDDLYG
Sequence of pepsin (P00791 60-385): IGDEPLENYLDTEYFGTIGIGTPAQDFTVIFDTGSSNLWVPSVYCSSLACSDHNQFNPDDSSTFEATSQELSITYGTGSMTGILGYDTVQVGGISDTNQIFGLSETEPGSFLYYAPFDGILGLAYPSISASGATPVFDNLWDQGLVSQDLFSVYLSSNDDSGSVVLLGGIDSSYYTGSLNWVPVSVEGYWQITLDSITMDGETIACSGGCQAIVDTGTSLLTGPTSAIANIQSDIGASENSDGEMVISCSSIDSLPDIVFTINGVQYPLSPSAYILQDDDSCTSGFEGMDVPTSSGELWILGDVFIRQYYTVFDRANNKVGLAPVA

Substance | complete blood count (CBC) panel and serum chemical analysis [1] | pathology of H&E stained tissues [1] | cleavage by pepsin [2] | fragmented mitochondria [3] | association of VCP to mtHtt (VCP binding) [4] | VCP level on mitochondria of striatum [5] | mtHtt aggregation in striatum [5] | cell viability after enzyme or serum pretreatment of the compound [6] | percent cleavage by pepsin ([2]; isolated enzyme pepsin, 50 min, 200 μM)
P1: PLP homopolymer having peptide side chains of SEQ ID: 1 (HVLVMSATRR), made by ROMP of norbornene peptide monomer M1 (also: side chains of polynorbornene homopolymer (PLP, ROMP of norbornene peptide monomer)) | no significant difference between groups | No pathological differences | no cleavage observed | significantly fewer fragmented mitochondria | exhibited evidence for binding | inhibited mitochondrial VCP accumulation to a lesser extent | inhibited mtHtt aggregation | did not have any significant change in cell viability | –
peptide sequence HVLVMCAT (HV3) coupled to the cell penetrating, HIV-derived TAT peptide [HV3-TAT, reference compound] | no significant difference between groups | No pathological differences | – | significantly fewer fragmented mitochondria | exhibited evidence for binding | blocked aberrant VCP mitochondrial translocation | inhibited mtHtt aggregation | significant decrease in cell viability | 100%
